Laboratory results published in patent US20090143279A1 (priority 2007, published 2009).
Where two headings read alike, the source gives them in different places.

Columns and labels:
[1] = tested on: cellular dehydrogenase activity
mtOXPHOS transcripts = format: cell-based, mouse
[2] = tested on: mitochondrial membrane potential; format: cell-based, mouse
reactive oxygen species = format: cell-based, mouse
nuOXPHOS transcripts = format: cell-based, mouse
cytochrome c = format: cell-based, mouse
OXPHOS gene expression = format: cell-based, mouse
[3] = composite Z-score vs mock-treated (DMSO) wells, Conc 20 μM
[4] = composite Z-score vs DMSO, Conc 20 μM
[5] = composite Z-score vs DMSO wells, Conc 20 μM
[6] = composite Z-score vs mock-treated (DMSO) wells, concentration of each compound in μM
[7] = normalized composite Z-score vs mock-treated (DMSO) wells, Conc 20 μM
[8] = composite Z-score vs DMSO, Conc 15.08 μM
[9] = Table 7, C2C12 myotubes, 48 h, composite Z-score

cytochrome c, sequence (P62897 whole entry): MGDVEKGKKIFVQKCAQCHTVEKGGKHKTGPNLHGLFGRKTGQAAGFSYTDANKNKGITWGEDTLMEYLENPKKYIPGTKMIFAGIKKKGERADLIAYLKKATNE

`C[C@H]1C[C@H]2[C@@H]3CCC4=CC(=O)C=C[C@]4(C)[C@@]3(F)[C@@H](O)C[C@]2(C)[C@@]1(O)C(=O)CO` [betamethasone] was tested, and the “MTT (composite Z-score)” value [1] was −1.063, the “mitoOX (composite Z-score)” value (mtOXPHOS transcripts) was 0.853 and the “ΔΨm (composite Z-score)” value [2] was 0.849. The “ROS (composite Z-score)” value (reactive oxygen species) was 0.541, the “Viability (composite Z-score)” value (C2C12 myotubes) was −0.984 and the “nucOX (composite Z-score)” value (nuOXPHOS transcripts) was 0.633. For the same compound, the “cyt c (composite Z-score)” value (cytochrome c) was 0.130 and the “GE-HTS (composite Z-score)” value (OXPHOS gene expression) was 0.740.
Compound `COc1ccc2c(c1OC)OC[C@@H](c1ccc(OC)c(OC)c1OC)C2` [duartin, dimethyl ether] has an MTT [1, 3] of −0.975, a mitoOX (mtOXPHOS transcripts; [3]) of −0.571 and a ΔΨm [2, 3] of 0.556. For the same compound, the ROS (reactive oxygen species; [3]) was 0.796, the Viability (C2C12 myotubes; [3]) was 1.330 and the nucOX (nuOXPHOS transcripts; [3]) was −1.362. The cyt c (cytochrome c; [3]) was −0.531 and the GE-HTS (OXPHOS gene expression; [3]) was −1.156.
Compound `Oc1ccc([C@H]2Oc3cc(O)cc(O)c3C[C@H]2O)cc1` [(2R,3R)-(−)-epiafzelechin] has an MTT [1, 4] of −0.486, a mitoOX (mtOXPHOS transcripts; [4]) of −0.225 and a ΔΨm [2, 4] of −3.118. For the same compound, the ROS (reactive oxygen species; [4]) was 1.019, the Viability (C2C12 myotubes; [4]) was −0.719 and the nucOX (nuOXPHOS transcripts; [4]) was −0.559. It also gave a cyt c (cytochrome c; [4]) of 0.166 and a GE-HTS (OXPHOS gene expression; [4]) of −0.497.
For `O=C(O)CN(CC(=O)O)Cc1cc2c(cc1O)Oc1cc(O)c(CN(CC(=O)O)CC(=O)O)cc1C21OC(=O)c2ccccc21` [calcein], the MTT [1, 5] was −0.243, the mitoOX (mtOXPHOS transcripts; [5]) was −0.829 and the ΔΨm [2, 5] was −3.437. For the same compound, the ROS (reactive oxygen species; [5]) was 11.668, the Viability (C2C12 myotubes; [5]) was 5.567 and the nucOX (nuOXPHOS transcripts; [5]) was −0.468. For the same compound, the cyt c (cytochrome c; [5]) was 0.465 and the GE-HTS (OXPHOS gene expression; [5]) was −0.625.
`COc1cc2occ(-c3cc4c(cc3OC)OCO4)c(=O)c2cc1OC` [milldurone] gave an MTT [1, 6] of −0.713, a mitoOX (mtOXPHOS transcripts; [6]) of −0.215 and a ΔΨm [2, 6] of −0.569. It also gave an ROS (reactive oxygen species; [6]) of 0.680, a Viability (C2C12 myotubes; [6]) of −0.401 and a nucOX (nuOXPHOS transcripts; [6]) of 0.605. For the same compound, the cyt c (cytochrome c; [6]) was 0.465 and the GE-HTS (OXPHOS gene expression; [6]) was 0.343.
With `Cn1cnc2c1c(=O)[nH]c(=O)n2C` [theobromine] the MTT [1, 5] was −0.982, the mitoOX (mtOXPHOS transcripts; [5]) was −0.609 and the ΔΨm [2, 5] was −0.847. For the same compound, the ROS (reactive oxygen species; [5]) was 0.179, the Viability (C2C12 myotubes; [5]) was −0.264 and the nucOX (nuOXPHOS transcripts; [5]) was −0.449. It also gave a cyt c (cytochrome c) of 0.007, a cyt c (cytochrome c; [5]) of −0.026 and a GE-HTS (OXPHOS gene expression; [5]) of −0.561.
For (−)-asarinin, the MTT [1, 4] was −0.505, the mitoOX (mtOXPHOS transcripts; [4]) was −1.858 and the ΔΨm [2, 4] was −0.439. It also gave an ROS (reactive oxygen species; [4]) of −0.229, a Viability (C2C12 myotubes; [4]) of −0.632 and a nucOX (nuOXPHOS transcripts; [4]) of −0.726. For the same compound, the cyt c (cytochrome c; [4]) was 0.607 and the GE-HTS (OXPHOS gene expression; [4]) was −1.167.
For `COc1cc(C)c(C(=O)O)c(O)c1` [everninic acid], the MTT [1, 7] was −1.123, the mitoOX (mtOXPHOS transcripts; [7]) was 1.116 and the ΔΨm [2, 7] was −0.942. The ROS (reactive oxygen species; [7]) was 0.423, the Viability (C2C12 myotubes; [7]) was −0.592 and the nucOX (nuOXPHOS transcripts; [7]) was 1.517. The cyt c (cytochrome c; [7]) was 0.115 and the GE-HTS (OXPHOS gene expression; [7]) was 1.491.
`COc1cc2c(cc1OC)[C@@H]1C(=O)c3ccc(O)c(CC=C(C)C)c3O[C@@H]1CO2` [rotenonic acid, reference compound] gave an MTT [1, 3] of −0.731, a mitoOX (mtOXPHOS transcripts; [3]) of −0.108 and a ΔΨm [2, 3] of 0.050. For the same compound, the ROS (reactive oxygen species; [3]) was 0.173, the Viability (C2C12 myotubes; [3]) was 0.206 and the nucOX (nuOXPHOS transcripts; [3]) was −0.010. It also gave a cyt c (cytochrome c; [3]) of 0.365 and a GE-HTS (OXPHOS gene expression; [3]) of −0.064.
Work on `O=C(O)/C=C/C=C/c1ccccc1` [juarezic acid] yielded an MTT [1, 4] of −0.449, a mitoOX (mtOXPHOS transcripts; [4]) of −0.650 and a ΔΨm [2, 4] of −0.821. The ROS (reactive oxygen species; [4]) was 0.345, the Viability (C2C12 myotubes; [4]) was −0.106 and the nucOX (nuOXPHOS transcripts; [4]) was 0.108. The cyt c (cytochrome c; [4]) was −0.113 and the GE-HTS (OXPHOS gene expression; [4]) was −0.147.
With `COc1ccc(C[C@H]2NC[C@H](O)[C@H]2OC(C)=O)cc1` [Anisomycin, reference compound] the MTT [1, 8] was −4.623, the “mito-OXPHOS Z” value (mtOXPHOS transcripts; [9]) was −3.55 and the mitoOX (mtOXPHOS transcripts; [8]) was −3.545. It also gave a ΔΨm [2, 8] of −1.537, an ROS (reactive oxygen species; [8]) of −2.958 and a Viability (C2C12 myotubes; [8]) of −2.835. For the same compound, the “nucOXPHOS Z” value (nuOXPHOS transcripts; [9]) was 1.26, the nucOX (nuOXPHOS transcripts; [8]) was 1.256 and the nuOXPHOS expression (nuOXPHOS transcripts; screen, relative to mtOXPHOS, in words) was “preferentially increase”. It also gave a cyt c (cytochrome c; [8]) of −2.841 and a GE-HTS (OXPHOS gene expression; [8]) of −0.353.
Compound `C[C@@H]1CC[C@@]2(OC1)O[C@H]1C[C@H]3[C@@H]4CC=C5C[C@@H](O)CC[C@]5(C)[C@H]4CC[C@]3(C)[C@H]1[C@@H]2C` [diosgenin] has an MTT [1, 4] of −1.597, a mitoOX (mtOXPHOS transcripts; [4]) of 0.146 and a ΔΨm [2, 4] of −0.353. For the same compound, the ROS (reactive oxygen species; [4]) was 0.048, the Viability (C2C12 myotubes; [4]) was −0.044 and the nucOX (nuOXPHOS transcripts; [4]) was −0.445. For the same compound, the cyt c (cytochrome c; [4]) was −0.679 and the GE-HTS (OXPHOS gene expression; [4]) was −0.245.
